Measured values taken from PMC10799935, “Discovery of a peripheral 5HT2A antagonist as a clinical candidate for metabolic dysfunction-associated steatohepatitis” (Nature Communications, 2024).
“And” between values parts separate entries of the source, which are not always exact repeats. Equal values may be shown once. Values belong to the molecule of their own block, whether it stands above or below them.

How the values were obtained:
[1] = target: 5HT2A (Homo sapiens, UniProt P28223); assay: Human 5HT2A inhibition assay (FLIPR calcium 6, 5HT stimulus, stably transfected HEK293 cells); type: cell-based; parameters: expressed in transfected cells; host or cells: HEK293; conditions: for inhibition at 1 µM: HEK293, 1 μM, read-out: % Inhibition at 1 μM (SD)
Sequence of 5HT2A (P28223 whole entry): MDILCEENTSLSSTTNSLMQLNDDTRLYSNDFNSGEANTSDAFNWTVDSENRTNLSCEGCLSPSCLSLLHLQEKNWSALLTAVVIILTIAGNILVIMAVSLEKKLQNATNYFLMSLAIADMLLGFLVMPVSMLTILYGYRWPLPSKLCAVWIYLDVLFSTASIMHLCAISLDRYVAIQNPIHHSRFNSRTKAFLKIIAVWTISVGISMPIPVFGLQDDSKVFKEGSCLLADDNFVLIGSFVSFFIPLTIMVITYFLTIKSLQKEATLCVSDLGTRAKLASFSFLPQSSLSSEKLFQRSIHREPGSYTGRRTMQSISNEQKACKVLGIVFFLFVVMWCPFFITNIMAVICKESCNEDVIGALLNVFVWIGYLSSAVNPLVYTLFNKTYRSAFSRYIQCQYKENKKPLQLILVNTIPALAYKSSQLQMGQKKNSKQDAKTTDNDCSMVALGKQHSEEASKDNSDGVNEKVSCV
Description: The derivatives were evaluated at a concentration of 1 μM for their antagonist activity on the 5HT2A receptor (Tables 1–3)[33],[34]. […] The cells were stained with 100 μL of cytosolic calcium dye using the FLIPR calcium 6 assay solution (Molecular devices, #R8190) supplemented with 2.5 mM probenecid (Sigma; P8761) and incubated for 1 h at 37 °C. After 1 h, the designated amount of the compound was treated in each well and incubated for another 1 h at 37 °C. […] Experimental conditions for the 5HT subtypes can be found in the Supporting Information (Supplementary Table 1).

[2] = system: lipogenesis-related genes; assay: DIO mice: qRT-PCR of lipogenesis-related genes in liver; type: in vivo, mouse; conditions: DIO, PO, fold vs vehicle; for Fasn (Fold), Mean / Htr2a (Fold), Mean / Pparg (Fold), Mean / Srebp1c (Fold), Mean: group mean; for Fasn (Fold) / Htr2a (Fold) / Pparg (Fold) / Srebp1c (Fold): individual mouse
Description: Total RNA extractions from harvested tissues were performed using TRIzol according to the manufacturer’s protocol. After TURBO DNase (Invitrogen) treatment, 2 μg of total RNA was used to generate complementary DNA with a High-Capacity cDNA Reverse Transcription Kit (Thermo Fisher Scientific). Quantitative RT-PCR was performed with Fast SYBR Green Master Mix (Thermo Fisher Scientific) and a Viia 7 Real-time PCR System (Thermo Fisher Scientific) according to the manufacturer’s instructions. Gene expression was relatively quantified based on the delta-delta Ct (threshold cycle) method with the beta-actin gene as a reference gene. The sequence of primers can be found in the Supporting Information (Supplementary Table 2).

[3] = system: HFD-fed C57BL/6J mice; assay: DIO mice: quantification of hepatic triglyceride; type: in vivo, mouse; conditions: PO, liver; for Hepatic TG Levels, TG, individual animals / Hepatic TG Levels, TG per protein, individual animals: DIO C57BL/6J mice, one value per animal; for Hepatic TG Levels, TG, individual animals / Hepatic TG Levels, TG, group mean: not normalised; for Hepatic TG Levels, TG per protein, group mean / Hepatic TG Levels, TG, group mean: DIO mice
Description: Liver tissues were homogenized in 5% NP-40 using FastPrep-24. To solubilize fat, the homogenates were heated to 95 °C for 5 min and cooled at 23 °C, and repeated. Triglyceride Reagent (Sigma-Aldrich) or DW was added and incubated at 37 °C for 30 min to hydrolyze TG into glycerol. For the colorimetric assay of hydrolyzed TG levels, samples were incubated with Free Glycerol Reagent (Sigma-Aldrich) at 37 °C for 5 min. Differences in absorbance at 540 nm between hydrolyzed or non-hydrolyzed TG were quantified using a glycerol standard (Sigma-Aldrich). […]

[4] = system: HFD-fed C57BL/6J mice; assay: DIO mice: liver histology (H&E), NAFLD activity score (steatosis, inflammation, ballooning); type: in vivo, mouse; parameters: key to Steatosis (NAFLD Activity Score), individual animals / Steatosis score, group mean: steatosis score 0-3 (0 <5% to 3 >66% fat accumulation); conditions: for Ballooning (NAFLD Activity Score), individual animals / Inflammation (NAFLD Activity Score), individual animals / Steatosis (NAFLD Activity Score), individual animals / Total Activity (Total NAFLD Activity Score), individual animals: DIO C57BL/6J mice, one value per animal; for Hepatocyte ballooning score, Mean Diff. (Vehicle vs. treated): Dunnett's multiple comparisons test
Text: Epididymal, inguinal, and liver were harvested, fixed in 10% (w/v) neutral buffered formalin solution (Sigma-Aldrich), and embedded in paraffin. Five-micron-thick tissue sections were deparaffinized, rehydrated, and stained with hematoxylin and eosin (H&E)[10]. The total NAFLD activity score (NAS) is a widely used measure of grading for steatosis, lobular inflammation, and ballooning. The total NAS ranges from 0-8 and is the sum of unweighted scores for steatosis (0: <5%, 1: 5 ~ 33%, 2: 33 ~ 66%, 3: >66% fat accumulation in the liver), lobular inflammation (0: no foci inflammation in x200 field, 1: <2 foci inflammation, 2: 2 ~ 4 foci inflammation, 3: >4 foci inflammation), and hepatocellular ballooning (0: none, 1: few ballooning cells, 2: prominent ballooning cells). MASH was diagnosed when NAS was >5, while non-MASH was diagnosed when NAS was <4. According to the MASH CRN scoring system, a certified pathologist determined the NAS[39]. The histological scoring was performed blindly, without knowledge of any other information.

[5] = system: HFD-fed C57BL/6J mice; assay: DIO mice: blood profiling (serum cholesterol, triglyceride); type: in vivo, mouse; conditions: PO; for Blood Biochemistry CHO, individual animals / Blood Biochemistry TG, individual animals: DIO C57BL/6J mice, one value per animal; for Blood Biochemistry CHO, individual animals: serum total cholesterol; for Blood Biochemistry TG, individual animals: serum; for Serum TG levels, group mean / Serum total cholesterol levels (CHO), group mean: DIO mice
Description: Blood samples were obtained by cardiac puncture, and plasma was isolated. Blood profiling was performed by GC Pharma (Green Cross Corporation). Plasma TG and cholesterol were detected with an in vitro enzymatic colorimetric assay (CHOL2 and TRIGL; Roche, Germany) using a Cobas 8000 clinical analyzer with a c702 module (Roche).

[6] = DIO mice, PO, 10mpk, mean, 10 mg/kg

% Inhibition at 1 μM (SD) [1]: 97.17 ± 7.11%
Compound: Cc1nc2n(c(=O)c1CCN1CCC(=C3c4ccc(Cl)cc4CCc4cccnc43)CC1)CCC[C@H]2O (single isomer, unassigned) [22 g]

IC50 [1]: 0.061 µM
IC50 (nM) [1]: less potency than compound 11c
inhibition at 1 µM [1]: 89.2 ± 11%
Compound: Cc1nc2n(c(=O)c1CCN1CCC(=C3c4ccccc4CCc4cccnc43)CC1)CCCC2O (stereo not drawn) [Compound 11e]

Compound: Cc1nc2n(c(=O)c1CCN1CCC(=C3c4ccc(Cl)cc4CCc4cccnc43)CC1)CCCC2O (racemic) [GM106]
Fasn (Fold), Mean ([2]; 5mpk, 7 mice): 0.745
Htr2a (Fold), Mean ([2]; 5mpk, 7 mice): 0.510
Pparg (Fold), Mean ([2]; 5mpk, 7 mice): 0.893
Srebp1c (Fold), Mean ([2]; 5mpk, 7 mice): 0.768
Fasn (Fold) ([2]; 5mpk, 5 mg/kg): 0.6490 and 1.2211 and 0.8546 and 0.7608 and 0.3082 and 0.7010 and 0.7176
Htr2a (Fold) ([2]; 5mpk, 5 mg/kg): 0.4721 and 0.7255 and 0.4948 and 0.4297 and 0.7599 and 0.2475 and 0.4420
Pparg (Fold) ([2]; 5mpk, 5 mg/kg): 0.9158 and 1.2274 and 0.7611 and 0.5677 and 1.3805 and 0.7174 and 0.6847
Srebp1c (Fold) ([2]; 5mpk, 5 mg/kg): 0.9242 and 0.7728 and 0.8708 and 0.7607 and 0.6589 and 0.3460 and 1.0400
Fasn (Fold), Mean ([2]; 10mpk, 6 mice): 0.560
Htr2a (Fold), Mean ([2]; 10mpk, 6 mice): 0.414
Pparg (Fold), Mean ([2]; 10mpk, 6 mice): 1.032
Srebp1c (Fold), Mean ([2]; 10mpk, 6 mice): 0.496
Fasn (Fold) ([2]; 10mpk, 10 mg/kg): 0.3894 and 0.5870 and 0.6740 and 0.7101 and 0.3290 and 0.6694
Htr2a (Fold) ([2]; 10mpk, 10 mg/kg): 0.4677 and 0.2891 and 0.2762 and 0.4976 and 0.4041 and 0.5480
Pparg (Fold) ([2]; 10mpk, 10 mg/kg): 0.7506 and 1.1267 and 1.0050 and 0.9956 and 1.2727 and 1.0412
Srebp1c (Fold) ([2]; 10mpk, 10 mg/kg): 0.4795 and 0.5418 and 0.5388 and 0.5056 and 0.4290 and 0.4815
Hepatic TG Levels, TG, individual animals ([3]; 5mpk, 5 mg/kg): 0.07575 mg/mL and 0.09502 mg/mL and 0.09001 mg/mL and 0.07002 mg/mL and 0.1053 mg/mL and 0.1094 mg/mL and 0.1015 mg/mL
Hepatic TG Levels, TG per protein, individual animals ([3]; 5mpk, 5 mg/kg): 71.5854 mg/g protein and 74.7025 mg/g protein and 51.6625 mg/g protein and 103.84 mg/g protein and 123.461 mg/g protein and 75.9936 mg/g protein and 58.3099 mg/g protein
Hepatic TG Levels, TG, individual animals ([3]; 10mpk, 10 mg/kg): 0.06336 mg/mL and 0.0751 mg/mL and 0.08726 mg/mL and 0.101 mg/mL and 0.08773 mg/mL and 0.06215 mg/mL
Hepatic TG Levels, TG per protein, individual animals ([3]; 10mpk, 10 mg/kg): 41.8429 mg/g protein and 54.7941 mg/g protein and 65.6095 mg/g protein and 56.3849 mg/g protein and 74.0866 mg/g protein and 34.3504 mg/g protein
Hepatic TG Levels, TG per protein, group mean ([3]; 5mpk): 79.94 mg/g protein
Hepatic TG Levels, TG, group mean ([3]; 5mpk): 0.09 mg/mL
Hepatic TG Levels, TG per protein, group mean ([3]; 10mpk): 54.51 mg/g protein
Hepatic TG Levels, TG, group mean ([3]; 10mpk): 0.08 mg/mL
Ballooning (NAFLD Activity Score), individual animals ([4]; PO, 5mpk, 5 mg/kg): 2.00 and 1.00 and 0.00
Inflammation (NAFLD Activity Score), individual animals ([4]; PO, 5mpk, 5 mg/kg): 2.00 and 1.00
Steatosis (NAFLD Activity Score), individual animals ([4]; PO, 5mpk, 5 mg/kg): 3.00 and 2.00 and 1.00
Total Activity (Total NAFLD Activity Score), individual animals ([4]; PO, 5mpk, 5 mg/kg): 7.00 and 5.00 and 3.00 and 6.00 and 2.00 and 4.00
Ballooning (NAFLD Activity Score), individual animals ([4]; PO, 10mpk, 10 mg/kg): 0.00 and 1.00 and 2.00
Inflammation (NAFLD Activity Score), individual animals ([4]; PO, 10mpk, 10 mg/kg): 1.00 and 2.00 and 0.00
Steatosis (NAFLD Activity Score), individual animals ([4]; PO, 10mpk, 10 mg/kg): 0.00 and 1.00
Total Activity (Total NAFLD Activity Score), individual animals ([4]; PO, 10mpk, 10 mg/kg): 1.00 and 3.00 and 5.00 and 0.00
Hepatocyte ballooning score, Mean Diff. (Vehicle vs. treated) ([4]; DIO mice, 5mpk): 0.2857
Hepatocyte ballooning score, Mean Diff. (Vehicle vs. treated) ([4]; DIO mice, 10mpk): 1
Steatosis score, group mean ([4]; DIO mice, PO, 5mpk, mean, 5 mg/kg): 2.0
Steatosis score, group mean ([4]; DIO mice, PO, 10mpk, mean): 0.5
Hepatocyte ballooning score, group mean [4, 6]: 1
Lobular inflammation score, group mean [4, 6]: 1.0
Blood Biochemistry CHO, individual animals ([5]; 5mpk, 5 mg/kg): 245.45 mg/dL and 237.41 mg/dL and 246.17 mg/dL and 215.59 mg/dL and 143.17 mg/dL and 210.2 mg/dL and 246.37 mg/dL
Blood Biochemistry TG, individual animals ([5]; 5mpk, 5 mg/kg): 80.27 mg/dL and 61.12 mg/dL and 86.84 mg/dL and 48.55 mg/dL and 85.94 mg/dL and 70.5 mg/dL and 70.39 mg/dL
Blood Biochemistry CHO, individual animals ([5]; 10mpk, 10 mg/kg): 190.51 mg/dL and 195.99 mg/dL and 228.58 mg/dL and 208.99 mg/dL and 197.21 mg/dL and 184.2 mg/dL
Blood Biochemistry TG, individual animals ([5]; 10mpk, 10 mg/kg): 45.42 mg/dL and 58.97 mg/dL and 70.76 mg/dL and 76.11 mg/dL and 81.65 mg/dL and 74.22 mg/dL
Serum TG levels, group mean ([5]; 5mpk): 71.94 mg/dL
Serum total cholesterol levels (CHO), group mean ([5]; 5mpk, 5 mg/kg): 220.62 mg/dL
Serum TG levels, group mean ([5]; 10mpk): 67.86 mg/dL
Serum total cholesterol levels (CHO), group mean ([5]; 10mpk, 10 mg/kg): 200.91 mg/dL

IC50 [1]: 0.0222 µM
inhibition at 1 µM [1]: 93.8 ± 3.13%
Compound: O=C1Cc2cc(C(O)CN3CCC(=C4c5ccc(Cl)cc5CCc5cccnc54)CC3)c(Cl)cc2N1 (stereo not drawn) [Compound 9c]

IC50 [1]: 0.0111 µM
Compound: Cc1nc2n(c(=O)c1CCN1CCC(=C3c4ccc(Cl)cc4CCc4cccnc43)CC1)CCC[C@H]2O (single isomer, unassigned) [Compound 22 g]

Compound: O=C1Cc2cc(C(=O)CN3CCC(=C4c5ccc(Cl)cc5CCc5cccnc54)CC3)c(Cl)cc2N1 [Compound 8c]
% Inhibition at 1 μM (SD) [1]: 73.02 ± 0.51%
inhibition at 1 µM [1]: 73%

IC50 [1]: 0.0214 µM
inhibition at 1 µM [1]: 92.2 ± 1.59%
Compound: O=C1Cc2cc(C(O)CN3CCC(=C4c5ccc(Cl)cc5CCc5cccnc54)CC3)ccc2N1 (stereo not drawn) [Compound 9b]

% Inhibition at 1 μM (SD) [1]: 94.47 ± 1.53%
Compound: O=C1Cc2cc(CCN3CCC(=C4c5ccc(Cl)cc5CCc5cccnc54)CC3)c(Cl)cc2N1 [Compound 11a]

% Inhibition at 1 μM (SD) [1]: 96.07 ± 1.87%
Compound: Cc1nc2n(c(=O)c1CCN1CCC(=C3c4ccc(Cl)cc4CCc4cccnc43)CC1)CCC[C@@H]2O (single isomer, unassigned) [22 f]

IC50 [1]: 0.0814 µM
inhibition at 1 µM [1]: 83.2 ± 1.98%
Compound: O=C(CN1CCC(=C2c3ccc(Cl)cc3CCc3cccnc32)CC1)c1ccc(Br)cc1 [Compound 8a]

Compound: O=C1Cc2cc(C(=O)CN3CCC(=C4c5ccc(Cl)cc5CCc5cccnc54)CC3)ccc2N1 [Compound 8b]
% Inhibition at 1 μM (SD) [1]: 68.34 ± 2.78%
inhibition at 1 µM [1]: 68%

IC50 [1]: 0.0319 µM
inhibition at 1 µM [1]: 92 ± 1.07%
Compound: OC(CN1CCC(=C2c3ccc(Cl)cc3CCc3cccnc32)CC1)c1ccc(Br)cc1 (stereo not drawn) [Compound 9a]

IC50 [1]: 0.0106 µM
Compound: Cc1nc2n(c(=O)c1CCN1CCC(=C3c4ccc(Cl)cc4CCc4cccnc43)CC1)CCC[C@@H]2O (single isomer, unassigned) [Compound 22 f]
